Reference: patent publication US11401516B2, “Channel modulators” (AUCKLAND UNISERVICES LIMITED, priority 2014, dated 2022)

Legend:
Assay type in all cases: cell-based, human
[1] = system: Cx43 hemichannel and pannexin channel mediated ATP release from hCMVEC cells; test: In vitro ischaemia injury ATP assay; conditions: for ATP release, percentage of the injury control: 2-hour injury
Protocol: Using an in vitro ischemia injury model, the Cx43 hemichannel and pannexin channel mediated ATP release was differentiated using the connexin hemichannel blocking mimetic peptide5 at 100 μM concentration (S. J. O'Carroll, et al., Cell communication & adhesion 15, 27 (May, 2008)) and 1 mM Probenecid (W. R. Silverman et al., The Journal of biological chemistry 284, 18143 (Jul. 3, 2009)).
Human cerebral microvascular endothelial cells (hCMVEC) were trypsinised (TrypLE Express, Life technologies) and plated at a density of 0.025×10^6 cells per well in a collagen-coated 12-well plate (1 μg/cm2) a day prior to the experiment. Cells were incubated in culture medium overnight. Hypoxic, acidic, ion-shifted Ringer injury solution that mimics ionic concentrations and acid-base shifts of the interstitial space in hypoxic-ischemic brains (A. Bondarenko, et al., Glia 34, 143 (Apr. 15, 2001)) was used to trigger hemichannel opening. The injury solution (in mM): 38 NaCl, 13 NaHCO3, 3 Na-gluconate, 65 K-gluconate, 38 NMDG-Cl, 1 NaH2PO4, 1.5 MgCl2, was bubbled in N2 gas (>99% purity, 20 L/min) for 5 minutes and pH adjusted to 6.6 using 5 M HCl. Control solution that mimics physiological conditions contained (in mM): 124 NaCl, 3 KCl, 26 NaHCO3, […], 1 NaH2PO4, 1.3 CaCl2, 1.5 MgCl2, and 10 Glucose, and pH 7.4 was adjusted using 5 M HCl (Bondarenko, 2001). […] Following a 2-hour injury the solutions were immediately placed on ice. In the injury and reperfusion model, hCMVEC cells were incubated in 500 μL of normal solution or injury solution for 2 hours at 37° C. in 95% O2 and 5% CO2. Following 2 hour injury, the solutions were discarded and replaced with 500 μL of the normal solution, or Tonabersat (10 μM) dissolved in normal solution, and were incubated for 2 hours at 37° C. in 95% O2 and 5% CO2. These solutions were also then immediately placed on ice. Peptide5 (100 μM)+/−Probenecid (1 mM) were used as controls for both injury and injury-reperfusion models. ATP concentration in the samples was determined using a Luciferin/luciferase bioluminescence reaction (ATP Determination Kit, Molecular Probes) and detected using a luminescence plate reader (VICTOR X, Perkin Elmer #2030-0010). Standard curves were generated in each experiment from an ATP standard (500 nM) to quantify the concentration of ATP in the test samples. The data is presented as mean±standard error relative to the injury or injury-reperfusion control. Statistically significant differences between samples were identified using one-way analysis of variance and Tukey's multiple comparisons test.

[2] = system: Cx43 mRNA in ARPE-19 cells; test: Real-time reverse transcription PCR of Cx43 mRNA; conditions: 50 μM, 1 h, versus untreated and vehicle controls
Protocol: In the below Examples 3, 6 and 7 using human retinal epithelial (ARPE-19) cells, the cells were grown in DMEM/F: 12 (Invitrogen), supplemented with 10% fetal calf serum (FCS), 100 units/mL of penicillin, 100 μg/mL of streptomycin, and 0.25 μg/mL of Fungizone® Antimycotic (Invitrogen).
Real time reverse transcription PCR was used to determine the relative level of Cx43 mRNA. A confluent monolayer of ARPE-19 cells was treated with Tonabersat for 1 hour. Cells were harvested with TRIzol® (Life Technologies), and total RNA was isolated using […] according to manufacturer's instructions. All RNA samples were quantified using a nanodrop 1000 micro volume spectrophotometer (Thermo Scientific). cDNA from samples were synthesised using SuperScript® III First-Strand Synthesis SuperMix (Invitrogen) according to manufacturer's instructions. Primer sequences for hCx43, GenBank Accession No. M65188.1, were obtained from the Harvard Primer bank. […] The appropriate reference gene to be used for relative fold-difference in Cx43 mRNA was determined by screening commonly used house-keeping genes, ß-actin [ACTB], Hypoxanthine phosphoribosyltransferase 1 [HPRT1], peptidylprolyl isomerase A [PPIA], and glyceraldehyde-3-phosphate dehydrogenase [GAPDH]. […] Relative changes in Cx43 mRNA expression were calculated as fold-differences against ß-actin using the 2-ΔΔCt method. […]

hCMVEC cells = test: MTT assay for cell viability; conditions: 200 μM, 24-hour treatment
Protocol: Stock MTT was prepared by dissolving 5 mg in 1 mL PBS producing a concentration of 5 mg/mL. After the treatment incubation period of cells seeded in a 96 well-plate (at 1×10^4 cells/well) the media was removed and replaced with 100 μL of PBS. 10 μL of MTT stock solution was added to each well, except for those that were used as a blank, and left to incubate at 37° C. for 4 hours at which time the solutions was aspirated from each well. Then 50 μL DMSO (Sigma) was added to each well to dissolve the crystalline product. Viability was determined by measuring the absorbance of the purple crystal produced. This was measured by reading the absorbance at 595 nm in a plate reader; the data was standardized to each control as an internal standard. Statistically was investigated using One-way ANOVA and Tukey's post hoc test where *p<0.05.

Question: Which results are given for `CC(=O)c1ccc2c(c1)[C@H](NC(=O)c1ccc(F)c(Cl)c1)[C@H](O)C(C)(C)O2` [Tonabersat, N-[(3S,4S)-6-acetyl-3-hydroxy-2,2-dimethyl-3,4-dihydrochromen-4-yl]-3-chloro-4-fluorobenzamide]?
Answer: difference between CBX and 10 μM Tonabersat in 1 mM Probenecid [1]: 14.9±4%; ATP release, percentage of the injury control ([1]; 0.1 μM Tonabersat in combination with 1 mM Probenecid): 85.9±2.4%; ATP release from hCMVEC cells ([1]; 0.1 μM to 100 μM Tonabersat in the absence of 1 mM Probenecid): did not reduce ATP release; ATP release, percentage of the injury control ([1]; 1 μM Tonabersat in combination with 1 mM Probenecid): 75.9±2.3%; ATP release, percentage of the injury control ([1]; 10 μM Tonabersat in combination with 1 mM Probenecid): 58.5±1.9%; ATP release, percentage of the injury control ([1]; 100 μM Tonabersat in combination with 1 mM Probenecid): 70.5±3.9%; difference in inhibition, 10 μM versus 100 μM Tonabersat ([1]; each with 1 mM Probenecid): 12.1±3.2%; Cx43 mRNA level relative to ß-actin [2]: no significant difference in Cx43 mRNA; cell viability (hCMVEC cells): did not significantly reduce cell viability
